Test system: formalin model
Experiment: Formalin test in mice (primary in vivo screening and ED50)
Set-up: species or system ICR male mice
Conditions: mice, second phase; for ED50: Mus musculus, ip, intraperitoneal, doses 0.1, 1, 5 and 10 mg/kg, read-out: ED50 in the second phase of the formalin model; for % Inhibition in the second phase of the formalin model relative to vehicle control: 5 mg/kg intraperitoneal
Method: For primary screening, the synthesized compounds were administered to mice via intraperitoneal injection at a dose of 5 mg/kg using the formalin model. The percentage inhibition in the second phase, relative to the vehicle control (DMSO/cremophor EL/distilled water = 10:10:80), was calculated.
Each compound was assessed using four doses (0.1, 1, 5, and 10 mg/kg) by intraperitoneal injection.
ICR male mice weighing 23–25 g was purchased from Samtako Korea (Osan, Republic of Korea). ICR mice were housed four per cage in a room with 12 h light–dark cycles. The temperature and relative humidity of the room were maintained at 22 ± 2 °C and 50 ± 5%, respectively. Food and water were available ad libitum. The procedures for animal testing were approved by Medifron Animal Care and Use Committees (Approval number; Medifron 2019-9). Efforts were made to minimize animal suffering and to reduce the number of animals used.
Mice were randomly assigned to five groups (four per group) and single-dose drugs were administered by intraperitoneal injection. The formalin-induced licking paw test was modified from the method described by Dubuisson and Dennis. Each mouse was acclimated to an acrylic observation chamber for at least 30 min before the injection of formalin. Twenty microliters of 2% formalin were injected subcutaneously into the right side of the hind paw. Each mouse was then placed in an individual clear plastic observational chamber (15 × 15 × 15 cm, volume = […] or 3.375 L), and the pain response was recorded for a period of 30 min. The summation of time (in seconds) spent in licking and biting responses of the injected paw during each 5 min block was measured as an indicator of the pain response. The first period (early phase) was recorded 0–5 min after the injection of formalin, and the second period (late phase) was recorded 20–30 min after the injection. The test compound was administered intraperitoneally 30 min before the formalin injection at […]: 0.1, 1, 5, and 10 mg/kg. The vehicle was DMSO/Cremophor EL/distilled water (10/10/80). The data were expressed as the mean ± standard error of the mean (SEM). Statistical analysis was assessed by one-way analysis of variance (ANOVA) with Bonferroni’s post hoc test. Statistical significance was set at p-value < 0.05, with values of p <0.001 considered highly significant.

SMILES | ED50 | % Inhibition in the second phase of the formalin model relative to vehicle control
N#Cc1ccc2[nH]cc(C(=O)NCCN3CCN(c4cccc(C(F)(F)F)c4)CC3)c2c1 [Compound 22, 5-Cyano-N-(2-(4-(3-(trifluoromethyl)phenyl)piperazin-1-yl)ethyl)-1H-indole-3-carboxamide] | 1.3 mg/kg | –
N#Cc1ccc2[nH]cc(C(=O)NCCCN3CCN(c4ccc(C(F)(F)F)cc4)CC3)c2c1 [Compound 41, 5-Cyano-N-(3-(4-(4-(trifluoromethyl)phenyl)piperazin-1-yl)propyl)-1H-indole-3-carboxamide] | – | 16.5%
N#Cc1ccc2[nH]cc(C(=O)NCCCN3CCN(c4ncccc4Cl)CC3)c2c1 [Compound 43, N-(3-(4-(3-Chloropyridin-2-yl)piperazin-1-yl)propyl)-5-cyano-1H-indole-3-carboxamide] | – | 45.3%
N#Cc1ccc2[nH]cc(C(=O)NCCCN3CCN(C(=O)C4COc5ccccc5O4)CC3)c2c1 (stereo not shown) [Compound 51, 5-Cyano-N-(3-(4-(2,3-dihydrobenzo[b][1,4]dioxine-2-carbonyl)piperazin-1-yl)propyl)-1H-indole-3-carboxamide] | – | 27.3%
N#Cc1ccc2[nH]cc(C(=O)NCCCN3CCN(c4ccc5ccccc5n4)CC3)c2c1 [Compound 45, 5-Cyano-N-(3-(4-(quinolin-2-yl)piperazin-1-yl)propyl)-1H-indole-3-carboxamide] | 0.93 mg/kg | –
N#Cc1ccc2[nH]cc(C(=O)NCCN3CCN(c4ccc(Cl)cc4)CC3)c2c1 [Compound 24, N-(2-(4-(4-Chlorophenyl)piperazin-1-yl)ethyl)-5-cyano-1H-indole-3-carboxamide] | – | 1.6%
N#Cc1ccc2[nH]cc(C(=O)NCCN3CCN(c4ccc5oc(C(N)=O)cc5c4)CC3)c2c1 [Compound 30, N-(2-(4-(2-Carbamoylbenzofuran-5-yl)piperazin-1-yl)ethyl)-5-cyano-1H-indole-3-carboxamide] | – | 23.8%
N#Cc1ccc2[nH]cc(C(=O)NCCN3CCN(c4cccc(C(F)(F)F)n4)CC3)c2c1 [Compound 26, 5-Cyano-N-(2-(4-(6-(trifluoromethyl)pyridin-2-yl)piperazin-1-yl)ethyl)-1H-indole-3-carboxamide] | – | 48.6%
N#Cc1ccc2[nH]cc(C(=O)NCCCN3CCN(c4cccc(C(F)(F)F)c4)CC3)c2c1 [Compound 38, 5-Cyano-N-(3-(4-(3-(trifluoromethyl)phenyl)piperazin-1-yl)propyl)-1H-indole-3-carboxamide] | – | 37.1%
N#Cc1ccc2[nH]cc(C(=O)NCCN3CCN(c4ccc(C(F)(F)F)cc4)CC3)c2c1 [Compound 25, 5-Cyano-N-(2-(4-(4-(trifluoromethyl)phenyl)piperazin-1-yl)ethyl)-1H-indole-3-carboxamide] | – | 19.8%
N#Cc1ccc2[nH]cc(C(=O)NCCCN3CCN(C(=O)c4ccc(F)cc4)CC3)c2c1 [Compound 49, 5-Cyano-N-(3-(4-(4-fluorobenzoyl)piperazin-1-yl)propyl)-1H-indole-3-carboxamide] | – | 20.3%
N#Cc1ccc2[nH]cc(C(=O)NCCCN3CCN(c4ccc5oc(C(N)=O)cc5c4)CC3)c2c1 [Compound 46, N-(3-(4-(2-Carbamoylbenzofuran-5-yl)piperazin-1-yl)propyl)-5-cyano-1H-indole-3-carboxamide] | – | 49.2%
N#Cc1ccc2[nH]cc(C(=O)NCCN3CCC(n4c(=O)[nH]c5cc(Cl)ccc54)CC3)c2c1 [Compound 53, N-(2-(4-(5-Chloro-2-oxo-2,3-dihydro-1H-benzo[d]imidazol-1-yl)piperidin-1-yl)ethyl)-5-cyano-1H-indole-3-carboxamide] | – | 14.3%
N#Cc1ccc2[nH]cc(C(=O)NCCCN3CCC(n4c(=O)[nH]c5cc(Cl)ccc54)CC3)c2c1 [Compound 55, N-(3-(4-(5-Chloro-2-oxo-2,3-dihydro-1H-benzo[d]imidazol-1-yl)piperidin-1-yl)propyl)-5-cyano-1H-indole-3-carboxamide] | – | 24.0%
N#Cc1ccc2[nH]cc(C(=O)NCCN3CCN(c4nsc5ccccc45)CC3)c2c1 [Compound 32, N-(2-(4-(Benzo[d]isothiazol-3-yl)piperazin-1-yl)ethyl)-5-cyano-1H-indole-3-carboxamide] | – | 14.3%
N#Cc1ccc2[nH]cc(C(=O)NCCN3CCN(c4cccc(F)c4)CC3)c2c1 [Compound 20, 5-Cyano-N-(2-(4-(3-fluorophenyl)piperazin-1-yl)ethyl)-1H-indole-3-carboxamide] | – | 3.1%
N#Cc1ccc2[nH]cc(C(=O)NCCCN3CCN(c4ncccc4C(F)(F)F)CC3)c2c1 [Compound 44, 5-Cyano-N-(3-(4-(3-(trifluoromethyl)pyridin-2-yl)piperazin-1-yl)propyl)-1H-indole-3-carboxamide] | – | 3.7%
N#Cc1ccc2[nH]cc(C(=O)NCCN3CCN(C(=O)c4cccc(C(F)(F)F)c4)CC3)c2c1 [Compound 34, 5-Cyano-N-(2-(4-(3-(trifluoromethyl)benzoyl)piperazin-1-yl)ethyl)-1H-indole-3-carboxamide] | – | 2.1%
N#Cc1ccc2[nH]cc(C(=O)NCCCN3CCN(c4cccc(C(F)(F)F)n4)CC3)c2c1 [Compound 42, 5-Cyano-N-(3-(4-(6-(trifluoromethyl)pyridin-2-yl)piperazin-1-yl)propyl)-1H-indole-3-carboxamide] | – | 45.7%
NCC1(CC(=O)O)CCCCC1 [gabapentin, reference compound] | – | 70.7%
N#Cc1ccc2[nH]cc(C(=O)NCCN3CCC(c4noc5cc(F)ccc45)CC3)c2c1 [Compound 52, 5-Cyano-N-(2-(4-(6-fluorobenzo[d]isoxazol-3-yl)piperidin-1-yl)ethyl)-1H-indole-3-carboxamide] | – | 46.7%
N#Cc1ccc2[nH]cc(C(=O)NCCN3CCN(C(=O)C4COc5ccccc5O4)CC3)c2c1 (stereo not shown) [Compound 35, 5-Cyano-N-(2-(4-(2,3-dihydrobenzo[b][1,4]dioxine-2-carbonyl)piperazin-1-yl)ethyl)-1H-indole-3-carboxamide] | – | 0.4%
N#Cc1ccc2[nH]cc(C(=O)NCCCN3CCN(c4ccc(Cl)cc4)CC3)c2c1 [Compound 40, N-(3-(4-(4-Chlorophenyl)piperazin-1-yl)propyl)-5-cyano-1H-indole-3-carboxamide] | – | 4.7%
N#Cc1ccc2[nH]cc(C(=O)NCCN3CCN(c4cccc(Cl)c4)CC3)c2c1 [Compound 21, N-(2-(4-(3-Chlorophenyl)piperazin-1-yl)ethyl)-5-cyano-1H-indole-3-carboxamide] | 2.3 mg/kg | –
Cc1ccc(Sc2ccccc2N2CCN(CCNC(=O)c3c[nH]c4ccc(C#N)cc34)CC2)c(C)c1 [Compound 31, 5-Cyano-N-(2-(4-(2-((2,4-dimethylphenyl)thio)phenyl)piperazin-1-yl)ethyl)-1H-indole-3-carboxamide] | 2.66 mg/kg | –

From paper PMC11859264, “Discovery of a Novel Multitarget Analgesic Through an In Vivo-Guided Approach” (Pharmaceuticals, 2025)
